The values that follow come from PMC5887109, “Unravelling the Molecular Determinants of Bee Sensitivity to Neonicotinoid Insecticides” (Current Biology, 2018).

A value given as a limit tells only on which side of the number the result lay.

One may read the Km as the concentration of substrate that gives half-maximal velocity.

Data set [1] deals with Bombus terrestris. The data set is described as follows: Acute oral insecticide bioassay of bumble bees, with or without PBO. The settings on record: for increase in the sensitivity of bumble bees after treatment with PBO: oral bioassay, PBO pretreatment; for LD50: 48 hours after application. On the procedure:
(§1) Acute contact insecticide assays were performed on female A. mellifera following standard methods OECD 2013 [30]. Bioassays of B. terrestris were based on the OECD guidelines developed for honeybees but with bees assayed in individual Nicot cages. Bees were starved of sucrose solution for up to 2 hr to encourage feeding during the experiment. […] Controls were fed a solution of sucrose containing a concentration of acetone matching that of the highest treatment concentration. After 4-6 hr the syringes were assessed to see if bees had consumed the insecticide-sucrose solution. Those that had not consumed all of the solution were excluded from the experiment. Mortality was assessed 48 hr after feeding and lethal concentrations (LC50 values) were calculated by probit analysis using Genstat version 16 (VSN International). For synergist bioassays, B. terrestris or A. mellifera workers were first treated with 20 μg of piperonyl butoxide or 1 μg of aminobenzotriazole applied to the dorsal thorax. Synergist bioassays included an additional control group treated only with the synergist. 1 hr after synergist application, bees were then treated with the appropriate insecticide dosage as above.

A further data set has as its system honeybees. The settings on record: depends on route of exposure; cited from earlier work.
The test system of data set [2] is bumble bees (Bombus terrestris). The data set is described as follows: Bumble bee contact and oral bioassays taken together, EPA rating. The settings on record: depends on route of exposure. As to the method:
as §1

The target of a further data set is T1, CYP9Q2 (Apis mellifera, UniProt A0A7M7R6F2).
T1 sequence (A0A7M7R6F2 1-532): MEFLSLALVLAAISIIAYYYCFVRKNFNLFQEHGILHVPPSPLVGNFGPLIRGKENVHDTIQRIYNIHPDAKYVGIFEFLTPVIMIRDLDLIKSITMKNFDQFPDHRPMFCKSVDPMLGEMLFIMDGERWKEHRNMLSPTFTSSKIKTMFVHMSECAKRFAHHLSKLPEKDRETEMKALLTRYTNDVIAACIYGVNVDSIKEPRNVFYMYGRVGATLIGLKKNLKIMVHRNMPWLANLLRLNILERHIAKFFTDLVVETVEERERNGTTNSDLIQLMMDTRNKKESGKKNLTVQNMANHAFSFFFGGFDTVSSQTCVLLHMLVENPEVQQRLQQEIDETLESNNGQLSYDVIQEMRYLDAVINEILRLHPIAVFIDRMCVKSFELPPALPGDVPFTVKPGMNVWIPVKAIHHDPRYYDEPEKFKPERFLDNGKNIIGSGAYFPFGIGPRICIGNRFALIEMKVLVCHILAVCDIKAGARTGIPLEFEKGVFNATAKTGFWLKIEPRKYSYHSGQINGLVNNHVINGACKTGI
T1 sequence (Q07994 1-671 partner): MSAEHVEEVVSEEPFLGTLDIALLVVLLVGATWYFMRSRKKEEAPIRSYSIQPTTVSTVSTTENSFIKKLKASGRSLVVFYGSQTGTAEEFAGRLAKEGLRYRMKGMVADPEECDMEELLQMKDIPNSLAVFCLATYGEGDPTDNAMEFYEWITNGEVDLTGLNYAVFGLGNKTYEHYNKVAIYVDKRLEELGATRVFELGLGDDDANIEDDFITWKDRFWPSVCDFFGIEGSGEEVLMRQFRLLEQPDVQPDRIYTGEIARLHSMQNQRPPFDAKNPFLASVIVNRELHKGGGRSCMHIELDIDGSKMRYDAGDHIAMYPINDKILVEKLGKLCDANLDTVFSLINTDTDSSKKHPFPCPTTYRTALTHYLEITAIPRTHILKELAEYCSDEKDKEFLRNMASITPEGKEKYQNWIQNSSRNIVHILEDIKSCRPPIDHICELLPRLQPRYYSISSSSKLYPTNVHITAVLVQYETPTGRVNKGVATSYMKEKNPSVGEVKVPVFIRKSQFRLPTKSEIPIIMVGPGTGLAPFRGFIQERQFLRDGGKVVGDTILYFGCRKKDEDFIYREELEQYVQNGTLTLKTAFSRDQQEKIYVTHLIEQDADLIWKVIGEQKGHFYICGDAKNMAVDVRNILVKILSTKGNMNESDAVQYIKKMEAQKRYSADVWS
Put plainly: in vitro. The settings on record: for metabolism by the recombinant P450 (in words): hydroxylation (thiacloprid, imidacloprid) or N-desmethylation (acetamiprid). From the text: All bee P450 (see Table S3 for accession numbers) and house fly NADPH-dependent cytochrome P450 reductase (CPR) (GenBank accession number Q07994) genes were obtained by gene synthesis (Geneart, CA, USA) and inserted into the pDEST8 expression vector (Invitrogen). Codon optimization of all bee genes was used to optimize expression in lepidopteran cell lines. The PFastbac1 vector with no inserted DNA was used to produce a control virus. The recombinant baculovirus DNA was constructed and transfected into Trichoplusia ni (High five cells, Thermo Fisher) using the Bac-to-Bac baculovirus expression system (Invitrogen) according to the manufacturer’s instructions. The titer of the recombinant virus was determined following protocols of the supplier. High Five cells grown to a density of 2 × 10^6 cells ml^-1 were co-infected with recombinant baculoviruses containing each bee P450 and CPR with a range of MOI (multiplicity of infection) ratios to identify the optimal conditions. Control cells were co-infected with the baculovirus containing vector with no insert (ctrl-virus) and the recombinant baculovirus expressing CPR using the same MOI ratios. Ferric citrate and δ-aminolevulinic acid hydrochloride were added to a final concentration of 0.1 mM at the time of infection and 24 h after infection to compensate the low levels of endogenous heme in the insect cells. After 48 h, cells were harvested, washed with PBS, and microsomes of the membrane fraction prepared according to standard procedures and stored at −80°C [31]. Briefly, pellets were homogenized for 30 s in 0.1M Na/K-phosphate buffer, pH 7.4 containing 1mM EDTA and DTT and 200mM sucrose using a Fastprep (MP Biomedicals), filtered through miracloth and centrifuging for 10 min at 680 g at 4°C. The supernatant was then centrifuged for 1 h at 100,000 g at 4°C, with the pellet subsequently resuspended in 0.1M Na/K-phosphate buffer, pH 7.6 containing 1mM EDTA and DTT and 10% glycerol using a Dounce tissue grinder. P450 expression and functionality was estimated by measuring CO-difference spectra in reduced samples using a Specord 200 Plus Spectrophotometer (Analytik Jena) and scanning from 500 nm to 400 nm. The protein content of samples was determined using Bradford reagent (Sigma) and bovine serum albumin (BSA) as a reference.
The total assay volume was 200 μL using three replicates for each data point. Microsomes incubated without NADPH served as a control. The assay was stopped by the addition of ice-cold acetonitrile (to 80% final concentration), centrifuged for 10 min at 3000 g and the supernatant subsequently analyzed by tandem mass spectrometry as described previously. For the chromatography on a Waters Acquity HSS T3 column (2.1x50mm, 1.8μm), acetonitrile/water/0.1% formic acid was used as the eluent in gradient mode. […] The peak integrals were calibrated externally against a standard calibration curve. […] Substrate turnover from two independent reactions were plotted versus controls and Michaelis-Menten kinetics determined using GraphPad Prism version 7 (GraphPad Software, CA, USA).

The subject of data set [3] is Bombus terrestris. Put plainly: Acute contact (topical) insecticide bioassay of bumble bees. The settings on record: no synergist, 48 hours after application. On the procedure:
as §1

On to `O=[N+]([O-])NC1=NCCN1Cc1ccc(Cl)nc1` [imidacloprid], for which the “increase in the sensitivity of bumble bees after treatment with PBO” value in the data set with Bombus terrestris [1] was “no significant shift”. The “Synergism Ratio” value in the data set with Bombus terrestris [1] (oral, PBO versus no synergist) is 1.2. The LD50 with Bombus terrestris [1] (oral, no synergist) was found to be 0.038 μg/bee; with Bombus terrestris [1] (oral, synergist PBO), 0.032 μg/bee; with Bombus terrestris [3] it was 0.38 μg/bee. For the same compound, the EPA toxicity category result (with honeybees; in data set [2]) was “highly toxic” throughout. The “metabolism by the recombinant P450 (in words)” value on CYP9Q2 is “much lower efficiency than exhibited for thiacloprid”.
As for `N#C/N=C1\SCCN1Cc1ccc(Cl)nc1` [thiacloprid], the “increase in the sensitivity of bumble bees after treatment with PBO” value with Bombus terrestris [1] came to 4.2 fold. The LD50 in the data set with Bombus terrestris [1] (oral, no synergist) is on record as 19.68 μg/bee; with Bombus terrestris [1] (oral, synergist PBO), 4.73 μg/bee; with Bombus terrestris [3] it was more than 100 μg/bee. Besides, the EPA toxicity category entry (in the data set on honeybees; in data set [2]) was “slightly toxic” or “practically non-toxic” throughout. Further, the Km at 2 h on CYP9Q2 (Apis mellifera) came to 5.65 µM. Further, the “Vmax, thiacloprid hydroxylation” value on CYP9Q2 (apparent value, mean ± SD (n=3), decimal commas) is reported as 44,31±1,01 pmol min-1 mg-1. For the same compound, the “metabolism by the recombinant P450 (in words)” value on CYP9Q2 is on record as “weak activity”.
